According to ChEMBL document CHEMBL1138543, “Design and synthesis of calpain inhibitory 6-pyridone 2-carboxamide derivatives” (Eur J Med Chem, 2009):

Target: T1, Calpain-1 catalytic subunit (Homo sapiens, UniProt P07384)
T1 sequence (P07384 whole entry): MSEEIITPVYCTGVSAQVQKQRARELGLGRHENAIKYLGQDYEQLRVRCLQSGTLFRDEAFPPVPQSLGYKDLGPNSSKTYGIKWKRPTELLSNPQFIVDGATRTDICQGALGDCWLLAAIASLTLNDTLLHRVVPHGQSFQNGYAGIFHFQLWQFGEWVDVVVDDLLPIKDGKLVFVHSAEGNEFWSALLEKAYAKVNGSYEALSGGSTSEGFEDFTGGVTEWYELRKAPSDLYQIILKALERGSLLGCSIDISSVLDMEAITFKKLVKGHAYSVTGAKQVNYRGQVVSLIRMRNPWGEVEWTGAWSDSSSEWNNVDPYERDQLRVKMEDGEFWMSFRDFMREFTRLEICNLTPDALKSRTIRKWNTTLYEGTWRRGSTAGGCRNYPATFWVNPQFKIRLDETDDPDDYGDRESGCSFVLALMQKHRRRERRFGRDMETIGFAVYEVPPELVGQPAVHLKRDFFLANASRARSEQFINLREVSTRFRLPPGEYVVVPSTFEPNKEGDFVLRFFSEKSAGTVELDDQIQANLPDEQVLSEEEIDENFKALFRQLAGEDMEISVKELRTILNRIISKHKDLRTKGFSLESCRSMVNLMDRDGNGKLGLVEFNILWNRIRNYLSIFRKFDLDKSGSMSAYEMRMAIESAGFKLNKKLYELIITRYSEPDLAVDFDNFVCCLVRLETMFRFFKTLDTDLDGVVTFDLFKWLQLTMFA
Test: Inhibition of human erythrocytes mu-calpain by spectrofluorimeter

Structure (SMILES)	IC50 [µM]
Cc1ccc(=O)[nH]c1C(=O)N[C@@H](Cc1ccccc1)C(=O)C(=O)NCc1ccccc1	64.6
Cc1ccc(=O)[nH]c1C(=O)N[C@@H](Cc1ccccc1)C(=O)C(N)=O	2.81
COc1ccc(CNC(=O)C(=O)[C@H](Cc2ccccc2)NC(=O)c2[nH]c(=O)ccc2C)cc1OC	35.3
COc1ccc(CNC(=O)C(=O)[C@H](Cc2ccccc2)NC(=O)c2[nH]c(=O)ccc2C)cc1	6.19
Cc1ccc(=O)[nH]c1C(=O)N[C@@H](Cc1ccccc1)C(=O)C(=O)NCc1ccc(F)cc1	22.1
Cc1ccc(=O)[nH]c1C(=O)N[C@@H](Cc1ccccc1)C(=O)C(=O)NCCc1ccccn1	34
COc1ccc(CCNC(=O)C(=O)[C@H](Cc2ccccc2)NC(=O)c2[nH]c(=O)ccc2C)cc1	6.19
CCNC(=O)C(=O)[C@H](Cc1ccccc1)NC(=O)c1[nH]c(=O)ccc1C	40.2
Cc1ccc(=O)[nH]c1C(=O)N[C@@H](Cc1ccccc1)C(=O)C(=O)NCc1ccccn1	84.8
Cc1ccc(=O)[nH]c1C(=O)N[C@@H](Cc1ccccc1)C(=O)C(=O)NC(C)C	> 100
Cc1ccc(=O)[nH]c1C(=O)N[C@@H](Cc1ccccc1)C(=O)C(=O)NCCc1ccccc1	7.41
CNC(=O)C(=O)[C@H](Cc1ccccc1)NC(=O)c1[nH]c(=O)ccc1C	91.4
